Source: patent US20250241848A1 (priority 2011, published 2025)

What follows are compounds tested on axillary sweat production. Conditions: human, in vivo.

| Compound | greater effectiveness in reducing sweat production than placebo | greater reduction in sweat production than the subjects in the control group | reduction in sweat production (on average) | subjects with at least a 30% reduction in sweat production compared to Baseline visit |
| --- | --- | --- | --- | --- |
| CCCCCCCCCCCCCC(=O)OC(C)C [Isopropyl Myristate] | 191% | 195% | 103 mg | 55% |
| CCCOC(=O)c1ccc(O)cc1 [Propylparaben] | 245% | 337% | 177 mg | 70% |
| Polysorbate 80 | 280% | 300% | 159 mg | 80% |
